Read-outs that look alike come from different tables or passages of the source.
Assays:
[1] = Water sorption and desorption isotherms by Dynamic Vapor Sorption (DVS); format: physicochemical; conditions: for hygroscopicity / Change In Mass (%) - ref, Desorption / Change In Mass (%) - ref, Sorption: 25° C.; for hygroscopicity: 0 to 95% RH; for Change In Mass (%) - ref, Desorption / Change In Mass (%) - ref, Sorption: 40-0-95-0-40 (% RH)
Experimental: Water sorption and desorption isotherms were recorded at 25° C., 40° C. or 60° C. using a Dynamic Vapor Sorption (DVS) instrument as follows. The cycle used was as follows: 40-0-95-0-40 (% RH).

[2] = Granulation simulation experiments (XRPD after wetting and grinding); format: physicochemical
Experimental: Granulating solvent was added drop wise to the solid form being tested until the solid form was wetted sufficiently. The wet substance was ground manually. The solid form was evaluated for degree of crystallinity or form change by e.g., XRPD analysis and/or DSC analysis. Granulating solvents were water, pH 4.7, 50 mM acetate buffer, and pH 6.8, 50 mM phosphate buffer.

[3] = XRPD upon variation of humidity and temperature; format: physicochemical
[4] = Bulk stability studies (XRPD, HPLC degradation products); conditions: 1 week 50° C., 75% RH
Experimental: The stability of the crystalline form was investigated as follows. Bulk samples were analysed, e.g. by HPLC and/or XRPD after being exposed to various temperatures and residual humidities.

Structure (SMILES)	Change In Mass (%) - ref, Desorption ([1]; Cycle 1, target RH 0.0%) [%]	Change In Mass (%) - ref, Sorption ([1]; Cycle 1, target RH 0.0%) [%]	Change In Mass (%) - ref, Desorption ([1]; Cycle 1, target RH 10.0%) [%]	Change In Mass (%) - ref, Sorption ([1]; Cycle 1, target RH 10.0%) [%]	Change In Mass (%) - ref, Desorption ([1]; Cycle 1, target RH 20.0%) [%]	Change In Mass (%) - ref, Sorption ([1]; Cycle 1, target RH 20.0%) [%]	Change In Mass (%) - ref, Desorption ([1]; Cycle 1, target RH 30.0%) [%]	Change In Mass (%) - ref, Sorption ([1]; Cycle 1, target RH 30.0%) [%]	Change In Mass (%) - ref, Desorption ([1]; Cycle 1, target RH 40.0%) [%]	Change In Mass (%) - ref, Sorption ([1]; Cycle 1, target RH 40.0%) [%]	Change In Mass (%) - ref, Sorption ([1]; Cycle 1, target RH 50.0%) [%]	Change In Mass (%) - ref, Sorption ([1]; Cycle 1, target RH 60.0%) [%]	Change In Mass (%) - ref, Sorption ([1]; Cycle 1, target RH 70.0%) [%]	Change In Mass (%) - ref, Sorption ([1]; Cycle 1, target RH 80.0%) [%]	Change In Mass (%) - ref, Sorption ([1]; Cycle 1, target RH 90.0%) [%]	Change In Mass (%) - ref, Sorption ([1]; Cycle 1, target RH […]) [%]	Change In Mass (%) - ref, Desorption ([1]; Cycle 2, target RH 0.0%) [%]	Change In Mass (%) - ref, Sorption ([1]; Cycle 2, target RH 0.0%) [%]	Change In Mass (%) - ref, Desorption ([1]; Cycle 2, target RH 10.0%) [%]	Change In Mass (%) - ref, Sorption ([1]; Cycle 2, target RH 10.0%) [%]	also measured
C=CC(=O)N1CC2(CC(n3nc(-c4ccc5c(cnn5C)c4)c(-c4c(Cl)c(C)cc5[nH]ncc45)c3C)C2)C1 [Hydrate HA]	0.002	0.002	2.638	2.390	3.008	2.782	3.381	3.184	3.838	3.660	4.295	5.234	6.244	7.007	7.633	7.973	0.000	0.000	2.659	2.388	water content corresponding to hosted water molecules ([1]; 2.5 molecules of water): 7.9%; hygroscopicity [1]: hygroscopic; water absorbed ([1]; 80% RH at 25° C.): up to 7.0%; Change In Mass (%) - ref, Desorption ([1]; Cycle 2, target RH 20.0%): 3.102%; Change In Mass (%) - ref, Sorption ([1]; Cycle 2, target RH 20.0%): 2.773%; Change In Mass (%) - ref, Desorption ([1]; Cycle 2, target RH 30.0%): 3.573%; Change In Mass (%) - ref, Sorption ([1]; Cycle 2, target RH 30.0%): 3.163%; Change In Mass (%) - ref, Desorption ([1]; Cycle 2, target RH 40.0%): 4.126%; Change In Mass (%) - ref, Sorption ([1]; Cycle 2, target RH 40.0%): 3.624%; Change In Mass (%) - ref, Desorption ([1]; Cycle 2, target RH 50.0%): 5.062%; Change In Mass (%) - ref, Desorption ([1]; Cycle 2, target RH 60.0%): 6.040%; Change In Mass (%) - ref, Desorption ([1]; Cycle 2, target RH 70.0%): 6.816%; Change In Mass (%) - ref, Desorption ([1]; Cycle 2, target RH 80.0%): 7.346%; Change In Mass (%) - ref, Desorption ([1]; Cycle 2, target RH 90.0%): 7.766%; Change In Mass (%) - ref, Desorption ([1]; Cycle 2, target RH […]): 7.973%; molecules of water hosted ([1]; depending on the relative humidity): up to 2.5 molecules; form change after equilibration (XRPD) (50° C. and 70° C.): formation of several solvates in cyclohexane, ethanol, isopropanol or 1,2-propanediol; XRPD after granulation simulation ([2]; solvent for granulation: Water): no form change; form change on heating ([3]; at 80° C.): converts into an anhydrous form, namely Modification A; XRPD pattern on heating ([3]; heated at ambient relative humidity from 25° C. to 65° C.): remains unchanged
C=CC(=O)N1CC2(CC(n3nc(-c4ccc5c(cnn5C)c4)c(-c4c(Cl)c(C)cc5[nH]ncc45)c3C)C2)C1.O.O.O.O [Hydrate HB]	0.00	0.00	1.87	0.56	2.62	2.03	12.26	2.51	12.73	2.81	3.17	3.69	5.09	10.34	12.94	13.35	−0.09	−0.09	1.74	0.47	maximum water uptake ([1]; 25° C. and up to 95% RH): about 13%; Change In Mass (%) - ref, Desorption ([1]; Cycle 2, target RH 20.0%): 2.37%; Change In Mass (%) - ref, Sorption ([1]; Cycle 2, target RH 20.0%): 1.88%; Change In Mass (%) - ref, Desorption ([1]; Cycle 2, target RH 30.0%): 11.38%; Change In Mass (%) - ref, Sorption ([1]; Cycle 2, target RH 30.0%): 2.32%; Change In Mass (%) - ref, Desorption ([1]; Cycle 2, target RH 40.0%): 11.87%; Change In Mass (%) - ref, Sorption ([1]; Cycle 2, target RH 40.0%): 2.69%; Change In Mass (%) - ref, Desorption ([1]; Cycle 2, target RH 50.0%): 12.24%; Change In Mass (%) - ref, Desorption ([1]; Cycle 2, target RH 60.0%): 12.53%; Change In Mass (%) - ref, Desorption ([1]; Cycle 2, target RH 70.0%): 12.78%; Change In Mass (%) - ref, Desorption ([1]; Cycle 2, target RH 80.0%): 13.02%; Change In Mass (%) - ref, Desorption ([1]; Cycle 2, target RH 90.0%): 13.24%; Change In Mass (%) - ref, Desorption ([1]; Cycle 2, target RH […]): 13.35%; % Degradation Products, as measured by HPLC ([4]; area-% products): 3.97%; form change at 0% RH ([3]; 0% RH): completely dehydrates; form change on heating ([3]; further heating to 70° C. and above): converts to an anhydrous form, Modification B; XRPD pattern on heating ([3]; heated from 25° C. to 40° C.): changes to hydrate HC
C=CC(=O)N1CC2(CC(n3nc(-c4ccc5c(cnn5C)c4)c(-c4c(Cl)c(C)cc5[nH]ncc45)c3C)C2)C1 [Modification C]	−0.0018	−0.0018	0.0522	0.0639	0.0984	0.1010	0.1282	0.1365	0.1658	0.1764	0.2099	0.2719	0.2954	0.3628	0.4475	0.5450	−0.0143	−0.0143	0.0532	0.0434	hygroscopicity [1]: non hygroscopic; Change In Mass (%) - ref, Desorption ([1]; Cycle 2, target RH 20.0%): 0.1019%; Change In Mass (%) - ref, Sorption ([1]; Cycle 2, target RH 20.0%): 0.0893%; Change In Mass (%) - ref, Desorption ([1]; Cycle 2, target RH 30.0%): 0.1500%; Change In Mass (%) - ref, Desorption ([1]; Cycle 2, target RH 40.0%): 0.2014%; Change In Mass (%) - ref, Sorption ([1]; Cycle 2, target RH 40.0%): 0.1725%; Change In Mass (%) - ref, Desorption ([1]; Cycle 2, target RH 50.0%): 0.2678%; Change In Mass (%) - ref, Desorption ([1]; Cycle 2, target RH 60.0%): 0.3212%; Change In Mass (%) - ref, Desorption ([1]; Cycle 2, target RH 70.0%): 0.3789%; Change In Mass (%) - ref, Desorption ([1]; Cycle 2, target RH 80.0%): 0.4299%; Change In Mass (%) - ref, Desorption ([1]; Cycle 2, target RH 90.0%): 0.5046%; Change In Mass (%) - ref, Desorption ([1]; Cycle 2, target RH […]): 0.5450%; form change after equilibration (in ethanol, and methanol): converts to Hydrate HA; form change after equilibration (in isopropanol): converts into a mixture of HA and the isopropanol solvate; form change after granulation simulation ([2]; aqueous media as the solvent for granulation): no form change; XRPD after bulk storage [4]: No change
